The source of these data is patent US5525595A, “3- or 4-glycosyloxybenzopyran derivative and antiallergic agent containing the derivative as active ingredient” (priority 1993, dated 1996).

Assay [1] has as its system homologous passive cutaneous anaphylaxis (PCA) reaction. The experiment in a line: Effect on homologous passive cutaneous anaphylaxis (PCA) reaction in rats. Type of assay: in vivo, rats (Male wistar rats). To be noted: Rattus norvegicus, 0.5 h; 100 mg/kg oral, 1 hour before antigen, rats; Table 3. The protocol:
This experimental animal model is caused by immediate type allergic reaction, namely, antigen-antibody reaction. In the following, the method of this pharmacological test will be explained.
Method: Male wistar rats (9 weeks old) were intradermally administered 0.05 ml of anti-serum against trinitrophenylated ascaris (TNP-As) into two sites on the shaved dorsal skin. 48 hours later, 3-glycosyloxybenzopyran derivatives and 4-glycosyloxybenzopyran derivatives (test compounds) suspended in 0.5% sodium carboxymethylcellulose (CMCNa) were given orally at a dose of 100 mg/kg to the animals. 1 hour after administration of Test compounds, the animals were induced anaphylaxis by injection of saline (1 ml) dissolving 5 mg of Evans Blue and 1 mg of TNP-As into the tail vein of the animals. 30 minutes after induction of anaphylaxis, animals were anesthetized by ether and killed by bleeding, and were flayed dorsal skin. The leakage of dye was assessed by measuring the diameter (mean of shortest and longest diameter) of the blue spot on the inside surface of dorsal skin. As vehicle control group, only 0.5% CMCNa solution was administered orally, and as positive control group, Tranilast suspended in 0.5% CMCNa were administered orally at a dose of 100 mg/kg to the animals with the same method as the test compounds groups. Each experimental group consisted of 5 rats. [formula] In equation 1: A: leakage of dye in vehicle control group
B: leakage of dye in test compound group or in positive control group
The anti-allergic activity of the compounds of the present invention were compared with that of analogous compounds which were published in the Patent (EP-A-0598117) by PCA reaction. This pharmacological test was performed according to the method described in Test Example 1.

Assay [2] relates to contact dermatitis induced by picryl chloride. The experiment in a line: Effect on contact dermatitis induced by picryl chloride in mice (delayed type hypersensitization). It is filed as in vivo. The conditions noted are these: Mus musculus; 100 mg/kg oral, ear thickness 24 hours after challenge; Table 6; read-out: Inhibition (%) against the increase of ear thickness. The protocol: The delayed type hypersensitization is inhibited by steroid, but can not be effected by known anti-allergic agents. In the following, the method of the pharmacological test will be explained.
Method: Mice, shaved their abdominal skin on previous day, were immunized by applying 0.1 ml of acetone containing 7 mg of picryl chloride to the skin of the abdomen. 7 days after immunization, the thickness of the ear was measured with a dial thickness gauge, then mice were challenged by painting 5 μl of 1% picryl chloride olive oil solution to each side skin of left ear. 24 hours after challenge, the thickness of the left ear was measured again and the increase (%) of thickness was calculated according to equation 2. The compounds of the present invention (test compounds) suspended in 0.5% CMCNa were forcibly administered orally at a dose of 100 mg/kg at 1 hour before and 16 hours after challenge. As vehicle control group, only 0.5% CMCNa solution were administered orally, and as positive control group, Prednisolone, steroid hormone, and Tranilast were administered orally at the doses of 10 mg/kg and 100 mg/kg, respectively.
Increase (%)=(A-B)/B×100 (Equation 2)
A: thickness of the ear at 24 hours after challenge
B: thickness of the ear before challenge
Inhibition(%)=(C-D)/C×100 (equation 3)
C: The increase (%) in vehicle control group
D: The increase (%) in test compounds group or positive control group

Assay [3] concerns airway resistance in experimental asthma model. The experiment in a line: Effect on experimental asthma model in guinea pigs. Type of assay: in vivo, guinea pigs (Male hadley). The conditions noted are these: Cavia porcellus; 100 mg/kg oral, OVA challenge, guinea pigs; Table 7. The protocol:
The asthma is typical allergic disease and we carried out this pharmacological test by well known experimental asthma model in guinea pigs in order to confirm that the compounds of the present invention suppress the asthma. In the following, the method of the pharmacological test will be explained.
Method: Male hadley guinea pigs were immunized by intraperitoneal injection of saline (1 ml) containing 5 mg of ovalbumine (OVA) three times at interval of one week. 2 weeks after final immunization, the animals were challenged by inhalation of 1% OVA-saline solution for 1 minute and then the airway resistance of the animals were measured for 30 minutes with PULMOS-1 (Medical Interface Project Station Inc.) after the inhalation. The compounds of the present invention (test compounds) suspended in 0.5% CMCNa were given orally at a dose of 100 mg/kg. As positive control group, Disodium Cromoglicate (DSCG), well known anti-allergic agent, in saline were injected at a dose of 20 mg/kg into the vein of the animals. As vehicle control group, only 0.5% CMCNa solution were given orally. The inhibition (%) of the airway resistance in vehicle control group was calculated according to equation 5 and the result was shown in Table 7. Each experimental group consisted of 5 guinea pigs. [formula] In equation 5: A: Maximum airway resistance in vehicle control group
B: Maximum airway resistance in test compounds group or positive control group

Turning to `CCCCCCCCCCCCOc1ccc2c(O[C@@H]3O[C@H](CO)[C@@H](O)[C@H](O)[C@H]3O)c(O)c(=O)oc2c1` [compound 68], the inhibition in vivo at 100 mg/kg is 59.9% in assay [1], 56.6% in assay [2] and 65.3% in assay [3].
With `CCC=CCCOc1ccc2c(O[C@H]3O[C@H](CO)[C@@H](O)[C@H](O)[C@@H]3O)c(O)c(=O)oc2c1` [compound 84], the inhibition in vivo at 100 mg/kg turned out to be 45.5% in assay [1], 46.3% in assay [2] and 47.1% in assay [3].
Turning to `CC(C)=CCC/C(C)=C/COc1ccc2c(O)c(O[C@@H]3O[C@H](CO)[C@H](O)[C@H](O)[C@H]3O)c(=O)oc2c1` [compound 38], the figures for the inhibition in vivo at 100 mg/kg in assay [1], in assay [2] and in assay [3] were 59.6%, 57.6% and 73.7%, respectively.
As for `CC(C)Oc1ccc2c(O)c(O[C@H]3O[C@H](CO)[C@@H](O)[C@H](O)[C@@H]3O)c(=O)oc2c1` [compound 27], the results for the inhibition in vivo at 100 mg/kg in assay [1], in assay [2] and in assay [3] were 47.8%, 51.2% and 56.7%, respectively.
Consider `CCCCOc1ccc2c(O[C@@H]3O[C@H](CO)[C@@H](O)[C@H](O)[C@H]3O)c(OC(C)=O)c(=O)oc2c1` [compound 74], for which the results for the inhibition in vivo at 100 mg/kg in assay [1], in assay [2] and in assay [3] were 46.8%, 47% and 55.4%, respectively.
Take `CC(=O)Oc1ccc2c(OCc3ccccc3)c(O[C@@H]3O[C@H](COCc4ccccc4)[C@@H](OCc4ccccc4)[C@H](OCc4ccccc4)[C@H]3OCc3ccccc3)c(=O)oc2c1` [compound 12, 4-benzyloxy-7-acetoxy-3-(tetra-O-benzyl-β-D-glucopyranosyloxy)-2H-1-benzopyran-2-one]: the inhibition in vivo at 100 mg/kg amounted to 41.3% in assay [1], 40.8% in assay [2] and 39.2% in assay [3].
For `CCCCCCCCCCCCOc1ccc2c(O)c(O[C@H]3O[C@H](CO)[C@@H](O)[C@H](O)[C@@H]3O)c(=O)oc2c1` [compound 26] the same measures were 53.3%, 55.9% and 66.3%.
For `O=c1oc2cc(OCc3ccccc3)ccc2c(O[C@@H]2O[C@H](CO)[C@@H](O)[C@H](O)[C@H]2O)c1O` [compound 76] the same measures were 47.7%, 46.8% and 47.5%.
The corresponding values for `CCCCCCCCOc1ccc2c(O)c(O[C@@H]3O[C@H](CO)[C@@H](O)[C@H](O)[C@H]3O)c(=O)oc2c1` [compound 16] are 62.6%, 64% and 75.8%.
For `O=C(Oc1ccc2c(O[C@@H]3O[C@H](CO)[C@@H](O)[C@H](O)[C@H]3O)c(O)c(=O)oc2c1)c1ccccc1` [compound 72], the figures for the inhibition in vivo at 100 mg/kg in assay [1], in assay [2] and in assay [3] were 46.9%, 47.8% and 49.5%, respectively.
As to `CCCCCCCCCCCCOc1ccc2c(O)c(O[C@@H]3O[C@H](CO)[C@@H](O)[C@H](O)[C@H]3O)c(=O)oc2c1` [compound 17], the inhibition in vivo at 100 mg/kg is 59.2% in assay [1], 59.2% in assay [2] and 75% in assay [3].
`CC(C)=CCC/C(C)=C/COc1ccc2c(O)c(O[C@H]3O[C@H](CO)[C@@H](O)[C@H](O)[C@@H]3O)c(=O)oc2c1` [compound 29]: the inhibition in vivo at 100 mg/kg in assay [1] was 45.6%; in assay [2], 53.6%; in assay [3], 56.1%.
The corresponding values for `CCCCOc1ccc2c(O[C@H]3O[C@H](CO)[C@@H](O)[C@H](O)[C@@H]3O)c(OC(C)=O)c(=O)oc2c1` [compound 88] are 45.8%, 40.2% and 43.5%.
Turning to `CCCCOc1ccc2c(O)c(O[C@@H]3O[C@H](CO)[C@H](O)[C@H](O)[C@H]3O)c(=O)oc2c1` [compound 33], the inhibition in vivo at 100 mg/kg in assay [1] amounted to 57.2%; in assay [2], 62.5%; in assay [3], 68.1%.
With `O=c1oc2cc(OCc3ccccc3)ccc2c(O[C@H]2O[C@H](CO)[C@@H](O)[C@H](O)[C@@H]2O)c1O` [compound 90], the inhibition in vivo at 100 mg/kg in assay [1] turned out to be 45.3%; in assay [2], 38.4%; in assay [3] it was 40.5%.
For `CCCCCCCCCCOc1ccc2c(O[C@H]3O[C@H](CO)[C@@H](O)[C@H](O)[C@@H]3O)c(O)c(=O)oc2c1` [compound 81] the same measures were 48.3%, 50.8% and 63.1%.
Regarding `CCCCOc1ccc2c(O)c(O[C@H]3O[C@H](CO)[C@@H](O)[C@H](O)[C@@H]3O)c(=O)oc2c1` [compound 24], the inhibition in vivo at 100 mg/kg turned out to be 54.3% in assay [1], 52.6% in assay [2] and 58.3% in assay [3].
For the molecule `CCCCCCCCOc1ccc2c(O[C@@H]3O[C@H](CO)[C@H](O)[C@H](O)[C@H]3O)c(O)c(=O)oc2c1` [compound 94], the inhibition in vivo at 100 mg/kg in assay [1] worked out at 63.3%; in assay [2], 64.7%; in assay [3], 82.6%.
The corresponding values for `CCCCCCCCCCCCOc1ccc2c(O[C@H]3O[C@H](CO)[C@@H](O)[C@H](O)[C@@H]3O)c(OC(C)=O)c(=O)oc2c1` [compound 89] are 43.7%, 41.2% and 43.2%.
For the molecule `CCCCCCOc1ccc2c(O[C@@H]3O[C@H](CO)[C@@H](O)[C@H](O)[C@H]3O)c(O)c(=O)oc2c1` [compound 121], the inhibition in vivo at 100 mg/kg in assay [1] came to 63.7%; in assay [2], 63.7%; in assay [3] it was 75.1%.
Take `CC(=O)Oc1ccc2c(O)c(O[C@@H]3O[C@H](CO)[C@H](O)[C@H](O)[C@H]3O)c(=O)oc2c1` [compound 42]: the inhibition in vivo at 100 mg/kg in assay [1] was 52.7%; in assay [2], 52.1%; in assay [3], 62.6%.
The corresponding values for `CC(=O)Oc1ccc2c(O[C@@H]3O[C@H](CO)[C@H](O)[C@H](O)[C@H]3O)c(O)c(=O)oc2c1` [compound 105] are 51.4%, 47.8% and 58.8%.
The corresponding values for `CC(=O)Oc1ccc2c(O)c(O[C@H]3O[C@H](CO)[C@@H](O)[C@H](O)[C@@H]3O)c(=O)oc2c1` [compound 45] are 46.3%, 46.3% and 46.5%.
As to `O=c1oc2cc(OCc3ccccc3)ccc2c(O)c1O[C@H]1O[C@H](CO)[C@@H](O)[C@H](O)[C@@H]1O` [compound 31], the results for the inhibition in vivo at 100 mg/kg in assay [1], in assay [2] and in assay [3] were 46.9%, 48.6% and 53.5%, respectively.
